Assay results from US20080287375A1, “Selective Glycosidase Inhibitors, Methods of Making Inhibitors, and Uses Thereof” (SIMON FRASER UNIVERSITY, priority 2005, published 2008).
Entries after “also recorded” stand apart in the source; their conditions may differ. Where two headings read alike, the source gives them in different places.

How the values were obtained:
O-GlcNAcase [1] = target: T1, O-GlcNAcase (Homo sapiens, UniProt O60502)
T1 sequence (O60502 1-916): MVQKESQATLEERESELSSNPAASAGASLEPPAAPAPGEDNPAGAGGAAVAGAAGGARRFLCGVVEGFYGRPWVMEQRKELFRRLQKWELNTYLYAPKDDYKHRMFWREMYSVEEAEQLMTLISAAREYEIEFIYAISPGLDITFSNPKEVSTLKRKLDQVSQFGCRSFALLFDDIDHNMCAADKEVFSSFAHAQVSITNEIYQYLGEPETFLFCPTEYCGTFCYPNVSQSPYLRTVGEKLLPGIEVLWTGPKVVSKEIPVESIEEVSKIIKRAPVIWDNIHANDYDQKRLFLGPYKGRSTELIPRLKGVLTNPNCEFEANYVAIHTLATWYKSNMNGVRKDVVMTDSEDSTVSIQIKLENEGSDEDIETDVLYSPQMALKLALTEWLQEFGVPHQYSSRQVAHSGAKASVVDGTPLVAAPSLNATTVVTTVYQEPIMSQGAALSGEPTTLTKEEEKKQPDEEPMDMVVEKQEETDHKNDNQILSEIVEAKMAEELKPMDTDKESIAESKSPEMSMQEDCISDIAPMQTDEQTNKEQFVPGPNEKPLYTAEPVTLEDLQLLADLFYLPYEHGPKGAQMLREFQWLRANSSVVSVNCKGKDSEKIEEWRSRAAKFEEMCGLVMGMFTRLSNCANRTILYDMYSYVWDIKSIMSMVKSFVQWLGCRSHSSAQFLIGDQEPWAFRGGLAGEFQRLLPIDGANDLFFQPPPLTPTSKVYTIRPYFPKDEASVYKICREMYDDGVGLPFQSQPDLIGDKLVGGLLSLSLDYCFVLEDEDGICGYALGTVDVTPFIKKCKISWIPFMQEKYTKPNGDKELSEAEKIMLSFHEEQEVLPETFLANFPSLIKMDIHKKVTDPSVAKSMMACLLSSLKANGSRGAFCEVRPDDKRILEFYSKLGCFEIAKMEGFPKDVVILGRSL

O-GlcNAcase [2] = details: read-out: IC50, O-GlcNAcase, previous determinations; cited from earlier work
[3] = Decomposition of STZ in D2O followed by NMR; details: room temperature
O-GlcNAcase [4] = target: T1, O-GlcNAcase; assay: Time dependent inactivation of O-GlcNAcase by STZ
β-hexosaminidase = assay: Time dependent inactivation of β-hexosaminidase by STZ; details: 10 mM STZ, pH 4.25, over six hours
[5] = target: human placental β-hexosaminidase; assay: Inhibition of β-hexosaminidase, substrate MU-GlcNAc (5), Dixon plots
[6] = test system: O-GlcNAc-modified proteins in COS-7 cells; assay: Western blot of O-GlcNAc-modified proteins in COS-7 cells cultured with inhibitors; format: cell-based; details: 50 μM inhibitor, 40 hours, Western blot
Experimental: (§1) COS-7 cells were cultured in DMEM medium (Invitrogen) supplemented with 5-10% FBS (Invitrogen). Aliquots of inhibitors (50 μL of a stock in 95% ethanol) were delivered onto tissue culture plates and the ethanol was evaporated. The cells were incubated at 37° C. for 40 hours at which time they reached approximately 80% confluence. […] COS-7 cells were cultured to 25% confluence in 5% FBS and an aliquot (100 μL) of inhibitor dissolved in media and filter sterilized was added to each plate to yield a final concentration of 50 μM of inhibitor. COS-7 cells (2×10 cm plates) were harvested at the appropriate times by scraping and were pooled by centrifugation (200×g, 10 min). Cells were washed once with PBS, pH 7.0 (10 mL) and pelleted (200×g, 10 min). The cells could be frozen at −80° C. at this point. Control cultures without inhibitors were treated in the same manner.
A culture of control cells was treated in the same manner as follows but the cultures contained no inhibitor. Cells were harvested as described above. Frozen cells were thawed at 4° C., and cold lysis buffer (1 mL of 50 mM Tris, pH 8.0 containing 150 mM NaCl, 1 mM EDTA, 1 mM PMSF, 1% NP-40, 0.5% sodium deoxycholate, and 1 mM of inhibitor 90) was added. After 10 minutes at 4° C. the solution was centrifuged at 14,000 rpm in an Eppendorf 5415C microcentrifuge and the supernatant was collected. SDS/PAGE loading buffer was added to an aliquot (15 μL) of each sample, and after heating at 96° C. aliquots were loaded onto 10% or 12% Tris-HCl polyacrylamide gels. After electrophoresis, the samples were electroblotted to nitrocellulose membrane (0.45 μm, Bio-Rad). Transfer was verified by visual inspection of the transfer of prestained markers (Dual Colour Precision Plus Protein Standard—Biorad). The membrane was blocked by using 5% BSA (fraction V, Sigma) in PBS (blocking buffer A for samples probed with mouse anti-O-GlcNAc monoclonal IgM antibody (MAb CTD 110.6—Covance)) or 5% low-fat dry powdered milk (blocking buffer B for samples probed with anti-β-actin), pH 7.4, containing 0.1% Tween 20 for 1 h at room temperature or overnight at 4° C. The blocking solution was decanted, and a solution of blocking buffer A containing MAb CTD 110.6 (1:2500 of the stock) or blocking buffer B containing mouse monoclonal anti-β-actin IgG (Clone AC-40—Sigma) was added (1:1000 dilution) as appropriate. The membrane was incubated at room temperature for 1 h or overnight at 4° C. after which the blocking buffer was decanted and the membrane was rinsed with PBS, pH 7.4, containing 0.1% Tween 20 (wash buffer). Membranes were then rinsed for 2×5 min and 3×15 min with wash buffer. For immunological detection of O-GlcNAc, the membrane was incubated in blocking buffer A for 1 hour at RT and, after washing, the membrane was incubated with a secondary goat anti-mouse-IgM-HRP-conjugate (1:2500, Santa Cruz Biotech) for one hour at RT or 4° C. overnight in blocking solution. For detection of β-actin levels, the membrane was incubated with a secondary goat anti-mouse-IgG-HRP conjugate (1:100000, Sigma) for one hour at RT or 4° C. overnight in blocking solution B. Membranes were washed and detection of membrane bound goat anti-mouse-IgG-HRP conjugate was accomplished by chemiluminescent detection using the SuperSignal West Pico Chemiluminescent Detection Kit (Pierce) and film (Kodak Biomax MR).

COS-7 cells = assay: Proliferation rate and morphology of COS-7 cells incubated with inhibitors; format: cell-based; details: 50 μM inhibitor
Experimental: as §1

| Compound | inhibition of O-GlcNAcase, in words (O-GlcNAcase [1]) | selectivity for O-GlcNAcase over β-hexosaminidase, in words (O-GlcNAcase [1]) | selectivity ratio for O-GlcNAcase over β-hexosaminidase (O-GlcNAcase [1]) [fold] | Selectivity Ratio (β-Hex KI/O-GlcNAcase KI) (O-GlcNAcase [1]; Table 2) | Ki (O-GlcNAcase [1]; read-out: KI, O-GlcNAcase, pH 6.5) [mM] | IC50 (O-GlcNAcase [2]) [mM] | half-life in aqueous solution (D2O) [3] | time dependent inactivation of O-GlcNAcase (O-GlcNAcase [4]; 10 mM STZ, pH 6.5, over six hours) | expected ratio of reaction velocities VControl/VSTZ, O-GlcNAcase (O-GlcNAcase [4]; calculated assuming competitive inhibition, KI=1.5 mM, 1.2 mM STZ in assay) | time dependent inactivation of β-hexosaminidase (β-hexosaminidase) | Ki ([5]; read-out: KI, β-hexosaminidase, human lysosomal β-hexosaminidase) [mM] | Ki ([5]; read-out: β-Hexosaminidase KI, Table 2, substrate 5 at 0.64 mM, pH 4.25, Dixon plots) [mM] | cellular levels of O-GlcNAc-modified proteins compared to control [6] | proliferation rate or morphology compared to control cells (COS-7 cells) | binding more tightly than GlcNAc, β-hexosaminidase [5] [fold] |
| --- | --- | --- | --- | --- | --- | --- | --- | --- | --- | --- | --- | --- | --- | --- | --- |
| CN(N=O)C(=O)N[C@H]1C(O)O[C@H](CO)[C@@H](O)[C@@H]1O (mixture of isomers) [STZ, streptozotocin] | poor inhibitor | moderate selectivity | 31 | 31 | 1.5 | 1 to 2.5 | greater than 6 hours | did not act as a time dependent inactivator; also recorded: does not show a time dependent inactivation | 1.17 | did not act as a time dependent inactivator; also recorded: does not show a time dependent inactivation | 47 | 47 | – | – | – |
| CC(C)CC1=NC2C(OC(CO)C(O)C2O)S1 [Compound 9g, 1,2-dideoxy-2′-isobutyl-α-D-glucopyranoso-[2,1-d]-42′-triazoline D] | good inhibitors | – | – | – | – | – | – | – | – | – | – | – | Marked increases; also recorded: increase in cellular levels of O-GlcNAc-modified proteins | no abnormalities in proliferation rate or morphology | – |
| CC1=N[C@@H]2[C@@H](O)[C@H](O)[C@@H](CO)O[C@@H]2S1 [Compound 9a, 2′-methyl-α-D-glucopyrano-[2,1-d]-Δ2′-thiazoline, reference compound] | – | – | – | – | – | – | – | – | – | – | – | – | Marked increases; also recorded: increase in cellular levels of O-GlcNAc-modified proteins | no abnormalities in proliferation rate or morphology | 17000 |
